Data on five molecules can be found in US20180213771A1, “COMPOSITION, METHOD FOR PRODUCING COMPOSITION, AND PESTICIDE COMPOSITION” (Sumitomo Chemical Company, Limited, priority 2015, published 2018).

The data set is described as follows: Water solubility of the agrochemical active compound alone at 25° C. The class given is physicochemical.
On to `CC1CC(C)(C)c2cccc(NC(=O)c3cn(C)nc3C(F)F)c21` (centres unmarked) [agrochemical active compound A, N-(1,1,3-trimethylindan-4-yl)-1-methyl-3-difluoromethylpyrazole-4-carboxylic acid amide], for which the water solubility result is “about 20 ppm”.

For the molecule `CCNc1nc(CC)c(C(=O)NC(C#N)c2cccs2)s1` (centres unmarked) [ethaboxam, reference compound], the water solubility entry is listed as “about 5 ppm”.

Consider `CCS(=O)(=O)c1cccnc1-c1nc2cc(S(=O)(=O)C(F)(F)F)ccc2o1` [agrochemical active compound B, 2-[3-(Ethanesulfonyl)pyridin-2-yl]-5-(trifluoromethanesulfonyl)benzoxazole], for which the water solubility result is reported as “about 6 ppm”.

Regarding `C#CCN1C(=O)COc2cc(F)c(N3C(=O)C4=C(CCCC4)C3=O)cc21` [flumioxazin, reference compound], the water solubility entry was “about 2 ppm”.

With `Cc1cccc(-n2nnn(C)c2=O)c1COc1ccn(-c2ccc(Cl)cc2)n1` [agrochemical active compound C, 1-[2-({[1-(4-Chlorophenyl)-H-pyrazol-3-yl]oxy}methyl)-3-methylphenyl]-4-methyl-5-oxo-4,5-dihydro-1H-tetrazole], the water solubility result was “about 0.03 ppm”.
